≈ marks a conversion by molar mass, not a printed value. Like-named read-outs stand apart in the source and are kept apart here.
Columns and labels:
[1] = system: B. subtilis; test: Growth inhibition screening (broth dilution); assay type: cell-based, Bacillus subtilis; conditions: Bacillus subtilis
Procedure: (§1) In vitro screening of the compounds (PS1–14) was performed to assess the antibacterial activity against three Gram-positive (Staphylococcus aureus, Enterococcus faecalis and Bacillus subtilis,) and three Gram-negative (Pseudomonas aeruginosa, Klebsiella pneumonia and Escherichia coli) bacterial strains using the standard NCCLS broth dilution assay. The study’s standard drugs were ciprofloxacin (CIP) and ampicillin (AMP). Compounds were dissolved in a polar solvent (DMSO) and distributed into a 96-well plate in 200 µL of nutrient broth medium, with a final concentration of the compounds […] in each well. The bacterial cells (about 2.5 × 10^5 cells/mL) were inoculated into each well and incubated at 37 °C overnight. After incubation, the growth was measured by turbidity of the culture at 590 nm by spectrophotometer.

[2] = system: B. subtilis; test: Minimum bactericidal concentration; assay type: cell-based, Bacillus subtilis
[3] = system: E. faecalis; test: Growth inhibition screening (broth dilution); assay type: cell-based, Enterococcus faecalis; conditions: Enterococcus faecalis
Procedure: as §1

[4] = system: E. coli; test: Minimum bactericidal concentration; assay type: cell-based, Escherichia coli
[5] = system: S. aureus; test: Minimum bactericidal concentration; assay type: cell-based, Staphylococcus aureus
[6] = system: P. aeruginosa; test: Growth inhibition screening (broth dilution); assay type: cell-based, Pseudomonas aeruginosa; conditions: Pseudomonas aeruginosa
Procedure: as §1

[7] = system: K. pneumoniae; test: Minimum bactericidal concentration; assay type: cell-based, Klebsiella pneumonia
[8] = system: K. pneumoniae; test: Minimum inhibitory concentration (broth dilution); assay type: cell-based, Klebsiella pneumonia; conditions: alone
[9] = biological target: T1, MtMetAP1c (Mycobacterium tuberculosis, UniProt P9WK19); test: MetAP enzyme inhibition, Morrison Ki (Met-AMC fluorescence); assay type: biochemical, M. tuberculosis; conditions: Morrison Ki method
T1 construct: made in house
T1 sequence (P9WK19 whole entry): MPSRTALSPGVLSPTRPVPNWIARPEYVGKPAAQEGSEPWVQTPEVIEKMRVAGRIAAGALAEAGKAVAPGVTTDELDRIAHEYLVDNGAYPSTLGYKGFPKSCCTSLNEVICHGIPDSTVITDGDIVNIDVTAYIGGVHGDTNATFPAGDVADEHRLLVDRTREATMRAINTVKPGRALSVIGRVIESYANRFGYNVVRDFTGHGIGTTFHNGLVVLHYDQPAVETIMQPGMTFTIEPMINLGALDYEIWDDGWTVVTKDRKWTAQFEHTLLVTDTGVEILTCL
Procedure: MetAP appears to serve a vital role in the co- or post-translational modification of proteins, making it essential for bacterial cell metabolism and survival. In this study, all enzymes, which were used for this study, including MtMetAP1c (M. tuberculosis), EfMetAP1a (E. faecalis), SpMetAP1a (S. pneumoniae) and HsMetAP1b (H. sapiens) enzymes, were expressed and purified in our lab as previously reported. All compounds prepared 10 mM stocks in DMSO and were used for enzyme inhibition studies. The concentration of each enzyme is adjusted such that they have similar reaction rates (HsMetAp1b, 1 µM; SpMetAP1a, 5 µM; EfMetAP1a, 1 µM; MtMetAP1c, 1 µM;) as reported earlier. All assays were performed in […] reaction containing 50 mM HEPES (pH 7.5 for SpMetAP1a and HsMetAP1b; 8.0 for EfMetAP1a, MtMetAP1c, […]), 150 mM NaCl, and CoCl2 (three molar equivalents of corresponding enzymes). The reaction was started by adding 50 μM L-Methionine 7-amido-4-methyl coumarin (Met-AMC) and continuously monitoring the fluorescence of released 7-amino-4-methyl coumarin (AMC) (380 nm excitation and 460 nm emission) in a microplate multimode reader (TECAN, Austria). The maximum percentage of inhibition against enzymes is calculated at […] compound concentration. […] The Ki values were determined according to the Morrison method using three different concentrations of substrates and ten different concentrations of the inhibitor. All experiments were performed in triplicate. GraphPad Prism version 8.0.0 (San Diego, CA, USA) was used to determine all the kinetic parameters.

[10] = system: E. faecalis; test: Minimum inhibitory concentration (broth dilution); assay type: cell-based; conditions: Enterococcus faecalis, alone
[11] = system: P. aeruginosa; test: Minimum inhibitory concentration (broth dilution); assay type: cell-based; conditions: Pseudomonas aeruginosa, alone
[12] = system: K. pneumoniae; test: Growth inhibition screening (broth dilution); assay type: cell-based, Klebsiella pneumonia; conditions: Klebsiella pneumoniae
Procedure: as §1

[13] = biological target: EfMetAP1a (Enterococcus faecalis, UniProt Q832M5); test: MetAP enzyme inhibition, Morrison Ki (Met-AMC fluorescence); assay type: biochemical; conditions: Morrison Ki method
EfMetAP1a, sequence (Q832M5 entry or part of it): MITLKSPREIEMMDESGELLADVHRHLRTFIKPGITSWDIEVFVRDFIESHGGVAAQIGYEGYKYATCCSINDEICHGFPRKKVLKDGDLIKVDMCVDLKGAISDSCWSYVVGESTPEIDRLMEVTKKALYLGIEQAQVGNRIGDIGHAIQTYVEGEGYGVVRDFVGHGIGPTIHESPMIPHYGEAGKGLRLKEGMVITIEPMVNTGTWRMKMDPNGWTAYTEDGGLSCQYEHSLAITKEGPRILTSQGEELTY

[14] = biological target: SpMetAP1a (Streptococcus pneumoniae, UniProt Q8DPV1); test: as above; assay type: biochemical; conditions: Morrison Ki method
SpMetAP1a, sequence (Q8DPV1 entry or part of it): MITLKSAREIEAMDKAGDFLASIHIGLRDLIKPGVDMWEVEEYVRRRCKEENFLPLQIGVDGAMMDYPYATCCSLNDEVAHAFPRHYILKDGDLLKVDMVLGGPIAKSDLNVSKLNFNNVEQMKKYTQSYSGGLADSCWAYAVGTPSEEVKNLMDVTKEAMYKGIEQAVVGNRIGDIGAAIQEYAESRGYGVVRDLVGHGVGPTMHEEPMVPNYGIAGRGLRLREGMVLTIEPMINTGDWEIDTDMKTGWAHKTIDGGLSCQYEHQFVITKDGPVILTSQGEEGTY

[15] = system: P. aeruginosa; test: Minimum bactericidal concentration; assay type: cell-based, Pseudomonas aeruginosa
[16] = system: S. aureus; test: Growth inhibition screening (broth dilution); assay type: cell-based, Staphylococcus aureus; conditions: Staphylococcus aureus
Procedure: as §1

[17] = system: E. faecalis; test: Minimum bactericidal concentration; assay type: cell-based, Enterococcus faecalis
[18] = system: S. aureus; test: Minimum inhibitory concentration (broth dilution); assay type: cell-based; conditions: Staphylococcus aureus, alone
[19] = system: E. coli; test: Minimum inhibitory concentration (broth dilution); assay type: cell-based, Escherichia coli; conditions: Escherichia coli, alone, read-out: MIC
[20] = system: B. subtilis; test: Minimum inhibitory concentration (broth dilution); assay type: cell-based; conditions: Bacillus subtilis, alone
[21] = system: E. coli; test: Growth inhibition screening (broth dilution); assay type: cell-based, Escherichia coli; conditions: Escherichia coli
Procedure: as §1

[22] = biological target: T2, HsMetAP1b (Homo sapiens, UniProt P53582); test: MetAP enzyme inhibition, Morrison Ki (Met-AMC fluorescence); assay type: biochemical, H. sapiens; conditions: Morrison Ki method
T2 construct: made in house

With `O=C1Nc2cc(Cl)ccc2/C1=N\NC(=O)c1cc(-c2cccc(Br)c2)n[nH]1` [PS3, (E)-3-(3-Bromophenyl)-N′-(6-Chloro-2-Oxoindolin-3-Ylidene)-1H-Pyrazole-5-Carbohydrazide] the melting point was 182 to 185 °C, the inhibition at 250 µg/mL [1] was 89% and the “MBC/MIC Ratio (R*)” value [2] was 2. The MBC ([2]; Bacillus subtilis) was 128 µg/mL (≈ 288 µM), the inhibition at 250 µg/mL [3] was 60% and the “MBC/MIC Ratio (R*)” value [4] was 2. The MBC ([4]; Escherichia coli) was 256 µg/mL (≈ 576 µM), the “MBC/MIC Ratio (R*)” value [5] was 1 and the MBC ([5]; Staphylococcus aureus) was 128 µg/mL (≈ 288 µM). The inhibition at 250 µg/mL [6] was 90%, the “MBC/MIC Ratio (R*)” value [7] was 8 and the MBC ([7]; Klebsiella pneumoniae) was 512 µg/mL (≈ 1150 µM). It also gave an MIC ([8]; Klebsiella pneumoniae, read-out: MIC) of 32 µg/mL (≈ 72 µM), an MIC [8] of 64 µg/mL (≈ 144 µM) and a Ki [9] of 2.32 ± 0.28 µM. For the same compound, the MIC [10] was 128 µg/mL (≈ 288 µM), the MIC [11] was 32 µg/mL (≈ 72 µM) and the inhibition at 250 µg/mL [12] was 97%. The Ki [13] was 4.63 ± 0.87 µM, the Ki [14] was 1.79 ± 0.08 µM and the “MBC/MIC Ratio (R*)” value [15] was 8. The MBC ([15]; Pseudomonas aeruginosa) was 256 µg/mL (≈ 576 µM), the inhibition at 250 µg/mL [16] was 64% and the “MBC/MIC Ratio (R*)” value [17] was 2. It also gave an MBC ([17]; Enterococcus faecalis) of 256 µg/mL (≈ 576 µM), an MIC [18] of 128 µg/mL (≈ 288 µM) and an MIC [19] of 128 µg/mL (≈ 288 µM). For the same compound, the MIC [20] was 64 µg/mL (≈ 144 µM), the inhibition at 250 µg/mL [21] was 89% and the Ki [22] was 332 ± 10.9 µM.

Reference: publication PMC9405123, “Design, Synthesis and Mechanistic Studies of Novel Isatin-Pyrazole Hydrazone Conjugates as Selective and Potent Bacterial MetAP Inhibitors” (Antibiotics, 2022)
